# Data taken from the supplement of paper PMC10331698.
# ± gives the standard deviation of the averaged measurements.
# What was measured:
# Experiment in all cases: level (log10 ratio to DMSO vehicle control); higher = higher biomarker level / cell amount than vehicle control
# [1] = compound: O=C(O)C(F)(F)C(F)(F)C(F)(F)C(F)(F)C(F)(F)C(F)(F)C(F)(F)C(F)F [9-H-Perfluorononanoic acid]; conditions: in DMSO
# Experimental: (§1)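 BioMAP Diversity Plus panel of 12 human primary cell co-culture systems (3C, 4H, LPS, SAg, BT, BF4T, BE3C, CASM3C, HDF3CGF, KF3CT, MyoF, Mphg). Compounds were added 1 h before stimulation and left for 24 h (MyoF 48 h; BT 72 h for soluble read-outs or 6 d for IgG). Biomarkers were read by ELISA, cytotoxicity by SRB, PBMC viability and proliferation by Alamar Blue. Each well value was divided by the mean of 8 DMSO control wells on the same plate and log10 transformed; duplicate blinded samples were tested at 4 concentrations.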
# Perfluoropentanoic acid = compound: O=C(O)C(F)(F)C(F)(F)C(F)(F)C(F)(F)F [Perfluoropentanoic acid]; conditions: in DMSO
# Experimental: as §1
# [2] = compound: O=C(O)C(F)(F)C(F)(F)C(F)(F)OC(F)(C(F)(F)F)C(F)(F)F [Perfluoro-4-isopropoxybutanoic acid]; conditions: in DMSO
# Experimental: as §1
# [3] = compound: O=C(O)C(F)(F)C(F)(F)C(F)F [4H-Perfluorobutanoic acid]; conditions: in DMSO
# Experimental: as §1
# Perfluoropropanoic acid = compound: O=C(O)C(F)(F)C(F)(F)F [Perfluoropropanoic acid]; conditions: in DMSO
# Experimental: as §1
# [4] = compound: OCC(F)(F)OC(F)(F)C(F)(F)OC(F)(F)CO [1H,1H,8H,8H-Perfluoro-3,6-dioxaoctane-1,8-diol]; conditions: in DMSO
# Experimental: as §1
# [5] = compound: OCCCC(F)(F)C(F)(F)C(F)(F)C(F)(F)C(F)(F)C(F)(F)C(F)(F)F [7:3 Fluorotelomer alcohol]; conditions: 6700 nM; in DMSO
# Experimental: as §1
Test System,level (log10) ([1]; 6700 nM),level (log10) ([1]; 20000 nM),level (log10) ([1]; 60000 nM),level (log10) (Perfluoropentanoic acid; 6700 nM),level (log10) (Perfluoropentanoic acid; 20000 nM),level (log10) (Perfluoropentanoic acid; 60000 nM),level (log10) ([2]; 6700 nM),level (log10) ([2]; 20000 nM),level (log10) ([2]; 60000 nM),level (log10) ([3]; 6700 nM),level (log10) ([3]; 20000 nM),level (log10) ([3]; 60000 nM),level (log10) (Perfluoropropanoic acid; 6700 nM),level (log10) (Perfluoropropanoic acid; 20000 nM),level (log10) (Perfluoropropanoic acid; 60000 nM),level (log10) ([4]; 6700 nM),level (log10) ([4]; 20000 nM),level (log10) ([4]; 60000 nM),level (log10) [5]
MyoF:Collagen IV,0.039 ± 0.037,0.0365 ± 0.018,0.082 ± 0.03,-0.007 ± 0.025,-0.012 ± 0.016,-0.0025 ± 0.023,-0.007 ± 0.035,-0.0025 ± 0.06,0.014 ± 0.047,0.0025 ± 0.0035,0.0005 ± 0.0035,0.023 ± 0.027,0.0075 ± 0.0021,-0.007 ± 0.011,0.0145 ± 0.019,-0.021 ± 0.013,-0.0125 ± 0.015,0.0065 ± 0.032,-0.02 ± 0.0085
MyoF:Collagen I,0.0035 ± 0.0021,0.0025 ± 0.0035,-0.0365 ± 0.0092,-0.0065 ± 0.0092,-0.008 ± 0.0085,0.0065 ± 0.015,-0.0045 ± 0.0035,-0.0035 ± 0.021,0.0075 ± 0.016,-0.0215 ± 0.022,-0.0115 ± 0.018,-0.0115 ± 0.0092,-0.0205 ± 0.011,-0.0075 ± 0.026,0.0255 ± 0.047,0.0045 ± 0.021,-0.0165 ± 0.052,-0.015 ± 0.04,-0.0125 ± 0.011
KF3CT:MMP-9,-0.05 ± 0.013,0.004 ± 0.0014,0.0475 ± 0.011,-0.0225 ± 0.025,-0.0205 ± 0.018,0.012 ± 0.038,0.0055 ± 0.0035,0.022 ± 0.02,0.078 ± 0.014,-0.024 ± 0.055,-0.0395 ± 0.012,-0.0775 ± 0.00071,-0.0405 ± 0.012,-0.053 ± 0.035,-0.0105 ± 0.032,-0.0005 ± 0.00071,0.0085 ± 0.011,0.0265 ± 0.0078,-0.019 ± 0.018
lMphg:SRB-Mphg,0.0225 ± 0.018,0.043 ± 0.013,0.0175 ± 0.032,-0.0125 ± 0.022,0.001 ± 0.0071,0.006 ± 0.017,-0.0085 ± 0.012,-0.0025 ± 0.005,-0.019 ± 0.0028,-0.009 ± 0.075,-0.015 ± 0.054,0 ± 0.027,-0.0375 ± 0.035,-0.096 ± 0.057,-0.0265 ± 0.1,-0.015 ± 0.033,0.0175 ± 0.023,0.0455 ± 0.077,-0.0015 ± 0.0021
BE3C:tPA,0.075 ± 0.023,0.0285 ± 0.019,0.002 ± 0.025,-0.059 ± 0.011,-0.043 ± 0.017,-0.013 ± 0.064,-0.0285 ± 0.018,-0.0385 ± 0.0035,-0.0025 ± 0.057,-0.016 ± 0.0014,-0.0305 ± 0.012,-0.006 ± 0.016,-0.016 ± 0.0042,-0.028 ± 0.028,0 ± 0.0014,-0.014 ± 0.021,-0.0255 ± 0.03,-0.0225 ± 0.00071,-0.014 ± 0.025
KF3CT:PAI-I,-0.0045 ± 0.0035,0.007 ± 0.0071,0.003 ± 0.0085,0.0005 ± 0.021,-0.003,0.004 ± 0.0057,-0.019 ± 0.0028,-0.0265 ± 0.015,-0.0125 ± 0.018,0.0015 ± 0.022,0.046 ± 0.02,-0.0075 ± 0.073,0.0095 ± 0.07,0.021 ± 0.0071,-0.006 ± 0.1,-0.015 ± 0.0028,-0.0095 ± 0.0078,-0.002 ± 0.0099,-0.017 ± 0.025
lMphg:CXCL8/IL-8,0.033 ± 0.021,0.0415 ± 0.019,0.112 ± 0.0014,0.005 ± 0.031,-0.0275 ± 0.013,0.044 ± 0.064,0.02 ± 0.042,0.066 ± 0.038,0.164 ± 0.0035,0.024 ± 0.0028,0.0145 ± 0.0021,0.0315 ± 0.011,0.0055 ± 0.0078,0.017 ± 0.018,0.0175 ± 0.043,0.0065 ± 0.079,0.007 ± 0.072,0.0235 ± 0.1,0.01 ± 0.013
BE3C:PAI-I,0.0195 ± 0.04,0.0405 ± 0.023,-0.0295 ± 0.0021,-0.021 ± 0.0071,-0.02 ± 0.0057,0.015 ± 0.057,-0.0155 ± 0.028,0.002 ± 0.017,0.0115 ± 0.032,-0.0235 ± 0.025,-0.014 ± 0.038,-0.0175 ± 0.023,-0.029 ± 0.045,-0.0065 ± 0.057,0.017 ± 0.052,-0.0105 ± 0.005,-0.0235 ± 0.0092,0.01 ± 0.021,-0.0545 ± 0.049
HDF3CGF:Collagen I,-0.0315 ± 0.1,0.009 ± 0.096,0.015 ± 0.052,-0.0295 ± 0.012,-0.01 ± 0.0014,0.003 ± 0.064,-0.0285 ± 0.067,-0.043 ± 0.078,0.032 ± 0.12,-0.0445 ± 0.028,-0.024 ± 0.072,0.0525 ± 0.029,0 ± 0.038,-0.031 ± 0.1,0.0375 ± 0.012,-0.025 ± 0.018,-0.023 ± 0.0042,0.02 ± 0.092,-0.0325 ± 0.046
CASM3C:M-CSF,-0.007 ± 0.0014,-0.012 ± 0.0028,0.0205 ± 0.028,-0.0055 ± 0.016,-0.004 ± 0.017,0.0045 ± 0.032,0.0165 ± 0.032,0.0075 ± 0.039,0.0155 ± 0.043,0.004 ± 0.045,-0.009 ± 0.016,0.059 ± 0.027,-0.0265 ± 0.16,0.0055 ± 0.0092,0.034 ± 0.065,-0.014 ± 0.0014,-0.0105 ± 0.005,0.0115 ± 0.0092,0.007 ± 0.0042
CASM3C:CXCL9/MIG,-0.024 ± 0.017,-0.0155 ± 0.0092,0.0205 ± 0.00071,0.001 ± 0.062,-0.0015 ± 0.036,0.043 ± 0.017,0.01 ± 0.0014,0.0125 ± 0.0021,0.044 ± 0.048,-0.0035 ± 0.028,0.0125 ± 0.00071,0.032 ± 0.017,0.0125 ± 0.015,0.0125 ± 0.012,0.0255 ± 0.037,0.0055 ± 0.012,0.0175 ± 0.011,0.0205 ± 0.0035,-0.0125 ± 0.0035
KF3CT:CXCL10/IP-10,-0.0155 ± 0.0021,-0.0265 ± 0.0064,-0.039 ± 0.0099,0.002 ± 0.0042,-0.0085 ± 0.0035,0.0025 ± 0.016,0.019 ± 0.034,0.017 ± 0.023,0.0235 ± 0.043,-0.007 ± 0.016,-0.0035 ± 0.016,0.01 ± 0.0042,-0.022 ± 0.033,0.004 ± 0.014,0.019 ± 0.0085,0.0025 ± 0.005,-0.001 ± 0.0028,0.004 ± 0.0028,0.01 ± 0.0042
HDF3CGF:CXCL9/MIG,-0.0475 ± 0.022,-0.052 ± 0.0071,-0.0735 ± 0.016,-0.004 ± 0.0057,-0.004 ± 0.018,-0.003 ± 0.02,-0.0125 ± 0.023,0.0185 ± 0.005,0.009 ± 0.024,-0.0015 ± 0.033,-0.0035 ± 0.025,-0.0125 ± 0.028,-0.019 ± 0.0014,-0.01 ± 0.014,-0.0195 ± 0.026,-0.0035 ± 0.015,-0.015 ± 0.037,0.0345 ± 0.067,-0.0225 ± 0.018
